Laboratory results as given in the supplement of paper PMC10307832.

Tests used:
Test in all cases: relative viability (nuclei count vs DMSO), 5 days (fraction); higher = more cells survive
[1] = compound: CN(C)CC1=CC(=CC=C1)N=C(C2=CC=CC=C2)C3=C(NC4=C3C=CC(=C4)C(=O)N(C)C)O + CC(=O)Nc1cccc(-n2c(=O)n(C3CC3)c(=O)c3c(Nc4ccc(I)cc4F)n(C)c(=O)c(C)c32)c1 [Trametinib] (partner 0.02 µM)
Outline: (§1)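 A single step with final 0.05% Triton X-100, 1% formaldehyde and 1 ug/ml Hoechst fixed the cells and stained nuclei 5 days after treatment. Lung cancer cell lines in 1536-well plates had been treated by pin tool the day after seeding with one drug alone or a fixed anchor-drug dose plus five library-drug doses (not always all listed) in √10 steps, and nuclei were counted on 4× images. Relative viability is the ratio of nuclei in treated wells to nuclei in vehicle wells, taken as the median of duplicate plates.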

[2] = compound: CN(C)CC1=CC(=CC=C1)N=C(C2=CC=CC=C2)C3=C(NC4=C3C=CC(=C4)C(=O)N(C)C)O + COc1cccc2cc(-c3nc([C@H]4CC[C@H](C(=O)O)CC4)n4ncnc(N)c34)[nH]c12 [OSI-027] (partner 0.5 µM)
Outline: as §1

[3] = compound: CN(C)CC1=CC(=CC=C1)N=C(C2=CC=CC=C2)C3=C(NC4=C3C=CC(=C4)C(=O)N(C)C)O + C[C@@H](Oc1cc(-c2cnn(C3CCNCC3)c2)cnc1N)c1c(Cl)ccc(F)c1Cl [Crizotinib] (partner 1 µM)
Outline: as §1

[4] = compound: CN(C)CC1=CC(=CC=C1)N=C(C2=CC=CC=C2)C3=C(NC4=C3C=CC(=C4)C(=O)N(C)C)O + N=C(N)NC(=N)NCCc1ccccc1 [Phenformin] (partner 250 µM)
Outline: as §1

Cell Line	relative viability ([1]; first compound 0.08 µM)	relative viability ([1]; first compound 0.253 µM)	relative viability ([1]; first compound 0.8 µM)	relative viability ([1]; first compound 2.53 µM)	relative viability ([1]; first compound 8 µM)	relative viability ([2]; first compound 0.08 µM)	relative viability ([2]; first compound 0.253 µM)	relative viability ([2]; first compound 0.8 µM)	relative viability ([2]; first compound 2.53 µM)	relative viability ([2]; first compound 8 µM)	relative viability ([3]; first compound 0.08 µM)	relative viability ([3]; first compound 0.253 µM)	relative viability ([3]; first compound 0.8 µM)	relative viability ([3]; first compound 2.53 µM)	relative viability ([3]; first compound 8 µM)	relative viability ([4]; first compound 0.08 µM)	relative viability ([4]; first compound 0.253 µM)	relative viability ([4]; first compound 0.8 µM)	relative viability ([4]; first compound 2.53 µM)	relative viability ([4]; first compound 8 µM)
HCC-366	0.47	0.323	0.325	0.339	0.24	0.999	1.1	0.971	0.878	0.414	0.484	0.503	0.513	0.47	0.558	0.648	0.612	0.641	0.566	0.601
HCC-827	0.541	0.491	0.429	0.495	0.49	0.795	0.712	0.749	0.686	0.699	0.919	0.909	0.923	0.879	0.868	0.374	0.404	0.323	0.396	0.356
HOP-62	0.363	0.361	0.391	0.362	0.339	0.852	0.847	0.827	0.769	0.799	0.927	0.907	1.09	1.06	0.882	0.7	0.64	0.677	0.601	0.629
IA-LM	–	–	–	–	–	–	–	–	–	–	0.937	0.797	0.906	0.926	1.04	–	–	–	–	–
LC-2-ad	0.86	0.885	0.893	0.866	0.841	0.935	0.73	0.867	0.732	0.614	0.406	0.402	0.486	0.4	0.441	0.623	0.582	0.563	0.526	0.575
LCLC-97TM1	0.231	0.222	0.2	0.191	0.176	0.611	0.627	0.543	0.436	0.656	0.37	0.517	0.453	0.331	0.445	0.466	0.408	0.475	0.438	0.422
LCLC-103H	0.707	0.623	0.642	0.675	0.619	0.452	0.538	0.493	0.493	0.452	1.14	1.06	0.914	1.02	0.979	0.347	0.368	0.304	0.337	0.291
LK-2	0.776	0.861	0.674	0.835	0.655	0.189	0.228	0.241	0.211	0.185	0.249	0.21	0.264	0.256	0.216	0.511	0.475	0.306	0.374	0.244
LOU-NH91	0.76	0.807	0.759	0.818	0.788	0.691	0.713	0.561	0.762	0.689	0.777	0.723	0.689	0.746	0.712	0.697	0.652	0.548	0.714	0.699
LU99A	0.504	0.499	0.571	0.482	0.411	0.245	0.346	0.341	0.297	0.286	0.565	0.551	0.61	0.513	0.411	0.737	0.874	0.862	0.655	0.757
LXF-289	0.669	0.628	0.643	0.573	0.655	0.769	0.731	0.707	0.713	0.639	0.871	0.762	0.758	0.773	0.757	0.499	0.489	0.518	0.518	0.473
NCI-H522	0.709	0.84	0.735	0.746	0.667	0.68	0.693	0.694	0.651	0.643	–	–	–	–	–	0.688	0.646	0.66	0.621	0.655
NCI-H1299	–	–	–	–	–	–	–	–	–	–	0.92	0.93	0.988	0.834	0.939	–	–	–	–	–
NCI-H1395	0.983	0.96	1.16	1	0.892	0.647	0.813	0.711	0.62	0.628	–	–	–	–	–	0.377	0.488	0.465	0.417	0.417
NCI-H1563	–	–	–	–	–	0.723	0.811	0.775	0.766	0.708	0.872	0.871	0.833	0.846	0.771	0.641	0.7	0.654	0.648	0.658
NCI-H1648	0.482	0.368	–	0.534	0.554	0.266	–	0.308	0.277	0.252	–	–	–	–	–	–	–	–	–	–
NCI-H1703	–	–	–	–	–	–	–	–	–	–	0.65	0.591	0.715	0.341	0.138	–	–	–	–	–
NCI-H1793	0.426	0.418	0.433	0.381	0.445	0.29	0.299	–	0.329	0.196	–	–	–	–	–	0.405	0.394	–	0.324	0.284
NCI-H2342	0.894	0.751	0.727	0.906	1.23	0.63	0.535	0.621	0.708	0.65	–	–	–	–	–	0.572	0.685	0.574	0.647	0.668
SW 900	0.819	0.738	0.702	1.04	1.24	0.677	0.652	0.663	0.664	0.537	–	–	–	–	–	0.613	0.668	0.646	0.492	0.602
